The series is described as follows: dissolution rate of ketoprofen in 0.1 N HCl. The format is physicochemical. The following applies: granulated with microcrystalline cellulose.

For `CC(C(=O)O)c1cccc(C(=O)c2ccccc2)c1` (centres unmarked) [ketoprofen, Ketoprofen], the “dissolution rate of ketoprofen in 0.1N HCl (change after processing)” value is reported as “increased two-fold” (Example 1: ketoprofen ground/mixed with distilled water in TSGM, 200 rpm, 25° C., dried at 40° C.); “increased two-fold” (Example 2: ketoprofen ground/mixed with 10% aqueous solution of Labrasol in TSGM); “increased four-fold” (Example 3: ketoprofen ground/mixed with 10% aqueous solution of Tween 80 in TSGM); “increased two-fold” (Example 4: ketoprofen ground/mixed with 10% aqueous solution of Capryol 90 in TSGM); “increased three-fold” (Example 5: ketoprofen ground/mixed with 10% aqueous solution of polyvinylpyrrolidone in TSGM).

For the origin of these results see patent US7607596B1, “Process for enhancing the solubility of poorly soluble drugs” (Exxpharma, LLC, priority 2007, dated 2009).
